Format in all cases: in vivo
In one experiment the test system is NOD.B10.H2^b mice. Kind of experiment: Tear production measured with phenol red-impregnated cotton threads in dry eye mice after removal of desiccation stress. As to conditions: for increased tear production compared to the control group (PBS group): 10 mg/ml in PBS, 5 μL instilled into eyeballs 5 times per day, up to 10 days after removal of desiccation stress, p<0.05; for tear production / tear volume, result in words: eye instillation 5 times per day for 10 days after removal of desiccation stress, 0.1% HA. On the procedure:
(§1) NOD.B10.H2^b mice were purchased from Jackson Laboratory (Bar Harbor, Me., USA). Experiments on animals were performed according to the guidelines for animal experiments of Inje University College of Medicine (No.; 2014-029) and the ARVO statement for the use of animals in ophthalmic and vision research. 12-to-16-week-old NOD.B10.H2^b mice underwent desiccation stress as being exposed to an air draft from a fan at an ambient humidity of about 40% to 50% for 18 hours per day, and then, were subjected to subcutaneous injection of 0.5 mg/0.2 mL of muscarinic receptor blockers. Also, the mice were injected with scopolamine hydrobromide (Sigma-Aldrich, St. Louis, Mo.) alternatively on hindquarters 4 times per day (9 AM, 12 PM, 3 PM, and 6 PM) for 10 days. During these experiments, behaviors and food and water intakes of the mice were not restricted. 10 days later, the mice were euthanized.
(§2) 10 days after the mice underwent desiccation stress, the scopolamine injection was halted, and then, the mice newly had environments with normal humidity and temperature. After the desiccation stress was removed, the mice were divided into a peptide I group or a peptide II group, wherein 10 mg/ml of peptide I or 10 mg/ml of peptide II was dissolved in PBS and 5 μL of PBS was instilled into eyeballs of the mice 5 times per day for 10 days. In addition, 5 μL of PBS or 5 μL of 0.1% HA were instilled into eyeballs of the mice in a control group, i.e., a PBS group or a hyaluni (HA) group, 5 times a day for 10 days. In each group, both eyes of each of 5 mice were used to conduct the experiments in a repetitive manner.
Extents of tear production were measured with phenol red-impregnated cotton threads (Zone-Quick; Oasis, Glendora, Calif.), as previously described (Villareal A L, Farley W, Pflugfelder S C. Effect of topical ophthalmic epinastine and olopatadine on tear volume in mice. Eye Contact Lens. 2006; 32(6):272-276). The threads were held medical tweezers and placed in the lateral canthus for 20 seconds. The tear volumes were expressed as millimeter (mm) of wet thread that had been turned red by the tears, as measured under a microscope (SZX7; Olympus corp, Tokyo, Japan).
The tear fluid uptakes measured in millimeters were compared to a standard curve that was prepared from cotton threads with known uptake volumes of a stock basic solution ([…] of 0.9% saline and 5 mL of 5 N NaOH) over 20 seconds that were within the range that would be expected for mouse tears.

A further experiment relates to corneal epithelial cells. Briefly: Detachment of corneal epithelial cells (H&E stain) in dry eye mice. As to conditions: instillation for 10 days after removal of desiccation stress. On the procedure:
as §1
(§3) 10 days after the mice underwent desiccation stress, the scopolamine injection was halted, and then, the mice newly had environments with normal humidity and temperature. After the desiccation stress was removed, the mice were divided into a peptide I group or a peptide II group, wherein 10 mg/ml of peptide I or 10 mg/ml of peptide II was dissolved in PBS and 5 μL of PBS was instilled into eyeballs of the mice 5 times per day for 10 days. […]

Experiment [1] relates to conjunctival goblet cells. Kind of experiment: Distribution of conjunctival goblet cells (PAS stain) in dry eye mice. As to conditions: instillation after removal of desiccation stress, p<0.05; for conjunctival goblet cells: desiccation stress 7.43±1.52. On the procedure:
as §1, §2
The eyes and adnexa of the mice in the control groups (i.e., the PBS group and the HA group) and the experimental groups (i.e., the peptide I group and the peptide II group) were surgically excised, fixed in 10% formalin, and embedded in paraffin and an OCT compound.
6 μm sections of the tissue samples were stained with haematoxylin and eosin (H&E) and periodic acid-Schiff (PAS) reagent.
5 animals in each group were subjected to the staining as described above, and then, were examined and photographed with a virtual microscope (NanoZoomer 2.0 RS, Hamamatsu, Japan).
The distribution of the conjunctival goblet cells in the dry eye mice were observed following peptide I, peptide II, and HA instillation.

In experiment [2] the test system is TNF-α, ICAM-1, VCAM-1, MMP-2, and MMP-9. Briefly: Immunohistochemical analysis of inflammatory markers in conjunctiva of dry eye mice. As to conditions: instillation for 10 days after removal of desiccation stress. On the procedure:
as §1, §3

Consider “GDRGD [peptide I, collagen type I α1 based peptide GDRGD]”, for which, in the experiment on NOD.B10.H2^b mice, the “increased tear production compared to the control group (PBS group)” value is reported as “about 2.52 fold” and the “tear production / tear volume, result in words” value is “recovering the tear volumes up to normal tear volumes”. The “number of detached corneal epithelial cells” value with corneal epithelial cells (DS 10D 2.29±0.61, PBS 1.43±0.34) is on record as “about 0.19±0.14 /0.1 mm^2”. Further, in experiment [1], the conjunctival goblet cells was found to be 13.3 ± 2.41 cells/0.1 mm^2 and the “increase of conjunctival goblet cells that were decreased by desiccation stress” value was “about 1.8 fold”. In experiment [2], the “expression of inflammatory markers (TNF-α, ICAM-1, VCAM-1, MMP-2, MMP-9) in the conjunctiva, result in words” value is “significantly decreased”.

Turning to “GQDGLAGPK [peptide II, collagen type II α1 based peptide …]”, in the experiment on NOD.B10.H2^b mice, the “increased tear production compared to the control group (PBS group)” value is reported as “about 2.52 fold” and the “tear production / tear volume, result in words” value is “recovering the tear volumes up to normal tear volumes”. The “decrease of detachment of corneal epithelial cells compared to the control groups” value in the experiment on corneal epithelial cells is on record as “about 4 fold”. Also, in experiment [1], the conjunctival goblet cells turned out to be 12.1 ± 1.11 cells/0.1 mm^2 and the “increase of conjunctival goblet cells that were decreased by desiccation stress” value is recorded as “about 1.63 fold”. Also, the “expression of inflammatory markers (TNF-α, ICAM-1, VCAM-1, MMP-2, MMP-9) in the conjunctiva, result in words” value in experiment [2] is “significantly decreased”.

The values above are taken from patent US10913788B2, “Pharmaceutical composition for preventing or treating dry eyes” (EYEBIO KOREA, priority 2015, dated 2021).
